This passage reports IC50 results from BindingDB's records for patent US20230416268 (Enanta Pharmaceuticals, 2023).

As a reminder, the IC50 is the concentration at which inhibition is half-maximal. Read a high IC50 as weaker potency in that assay.

The target in this assay is T1, 17-beta-hydroxysteroid dehydrogenase 13 (Homo sapiens, UniProt Q7Z5P4).
T1 sequence (Q7Z5P4 whole entry): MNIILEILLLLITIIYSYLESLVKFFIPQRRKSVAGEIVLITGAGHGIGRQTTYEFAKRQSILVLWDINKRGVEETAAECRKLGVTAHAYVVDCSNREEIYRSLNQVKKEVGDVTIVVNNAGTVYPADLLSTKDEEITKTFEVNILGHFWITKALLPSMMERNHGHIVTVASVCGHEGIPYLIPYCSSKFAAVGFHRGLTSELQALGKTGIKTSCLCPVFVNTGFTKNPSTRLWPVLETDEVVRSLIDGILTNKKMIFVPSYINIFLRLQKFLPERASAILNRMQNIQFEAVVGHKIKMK
The assay is described as follows: 17β-HSD13 Rapid-Fire Mass Spectrometry Assay. From the text:
Recombinant human 17β-HSD13 was expressed and purified from sf9 cells at Charles River Labs (Saffron Walden, UK). Leukotriene B4 (Catalog #71160-24-2) and 12-oxoleukotriene B4 (Catalog #20140) were purchased from Cayman Chemicals (Ann Arbor, MI). NAD+ (Catalog #N8285), BSA (Catalog #A7030), DMSO (Catalog #D2650), and Tween-20 (Catalog #11332465001) were purchased from Sigma (St. Louis, MO). Formic acid (Catalog #28905) was from ThermoFisher Scientific and 384 deep well PP microplates (Catalog #784261) were from Greiner Bio-One. In a typical IC50 assay performed in a 384w PP microplate, test compounds (0-100 μM) were incubated with HSD17B13 (80 nM), LTB4 (10 μM), and NAD+ (0.5 mM) in 10 μL assay buffer (20 mM Tris (pH 7.5), BSA (0.005%), and Tween-20 (0.01%)) at RT for 3 h. The assays were quenched by adding 20 μL of 0.15% aqueous formic acid and the plates were frozen at −80° C. RF/MS analysis was performed at PureHoney Technologies (Billerica, MA) on a RapidFire RF300 system (Agilent Technologies, Inc.) coupled to an API 4000 triple quadrupole mass spectrometer (Sciex) equipped with Agilent RapidFire cartridge type A (C4). […] Leukotriene B4 (335.3) and 12-oxoLeukotriene B4 (333.3) SRM transitions were optimized with Discovery Quant software and extracted ion counts for these analytes were determined.

Turning to `COc1ccc(-c2nc3sc4c(O)cccc4c3c(=O)n2CCNCc2cnc[nH]2)c(C2CC2)c1` [US20230416268, Example 31], the IC50 was below 100 nM.
